In patent EP0724879A2, “2-Phenyl-3-azoylbenzothiopenes for inhibiting effects of IL-6” (ELI LILLY AND COMPANY, priority 1995, dated 1996):
pIC50: −log10 of the molar value.

Tests used:
OVX-induced osteopenia = test: Assay 1: bone mass / BMD protection in OVX rats; assay type: in vivo, SD rats; settings: for BMD % (protection) / OVX-induced osteopenia: OVX rats, 35 day treatment; for OVX-induced osteopenia / bone density: result in words; for bone density: OVX/hypophysectomized (HYPOX) rats
Protocol: (§1) Six month old, virgin SD rats are OVX or OVX/hypophysectomized (HYPOX) and treated with vehicle (20% cyclodextrin, PO), raloxifene (0.1 to 10 mg/kg/day, PO) or ethynyl estradiol EE2; 0.001 to 0.1 mg/kg/day, PO). A sham, vehicle treated control is also included. Serum and/or long bones are collected after a 35 day or shorter treatment period. Serum cytokine determinations are performed by bioassay.
(§2) No consistent changes in other serum cytokines is detected.

IL-6 [1] = test: Assay 1: serum IL-6 in OVX rats (bioassay); assay type: in vivo, SD rats
Protocol: as §1, §2

IL-6 [2] = test: Assay 2: IL-1-induced serum IL-6 in mice (ELISA); assay type: in vivo; settings: male BALB/c mice, 1 mg/kg PO for 3 days, then IL-1b 3 ug SC, 2 hours
Protocol: Ten week old male BALB/c mice are treated with vehicle (20% cyclodextrin, PO) or raloxifene (1 mg/kg, PO) for 3 days. On day 4, mice are treated with vehicle (saline, IP), LA-15.1 anti-IL-1 receptor monoclonal antibody (mAb) (250 ug, IP) or human recombinant IL-1b (3 ug, SC). After 2 hours, serum was collected by orbital sinus puncture and IL-6 levels quantitated by ELISA.
Injection of IL-1 into cyclodextrin treated mice induces a significant increase in serum IL-6 (193 ± 29 ng/ml) versus saline injected cyclodextrin treated mice (<1 ng/ml) (Table 2). […] The anti-IL-1 receptor mAb LA-15.1 completely attenuates the IL-1-induced rise in serum IL-6 levels.

[3] = tested on: IL-2 stimulated proliferation (CTLL.6 cytolytic T cell); test: Assay 3: cytokine dependent cell proliferation, IL-2; assay type: cell-based; settings: Mus musculus, 50% inhibition of IL-2 dependent cell proliferation, 0.01 to 1 µM tested
Protocol: (§3) The following mouse cell lines were used for cytokine bioassays: CTLL.6 cytolytic T cell - IL-2, IL-4; 11.6 helper T cell - IL-4; T1165.17 plasmacytoma - IL-1, IL-6; B9 hybridoma - IL-6, LIF (leukemia inhibitory factor). Approximately 5,000 cells are seeded per duplicate well in 96-well flat-bottom microtiter plates in standard tissue culture medium (i.e. Iscove's Modified Dulbecco's Medium or Dulbecco's Modified Eagle's Medium supplemented with 25 mM Hepes, 2 mM L-glutamine, 50 µM 2-mercaptoethanol, 50 units/ml penicillin, 50 µg/ml streptomycin sulfate, and fetal bovine serum) containing vehicle (DMSO), raloxifene (0.01 to 1 µM) or 17-b-estradiol (0.01 to 1 µM) in the absence or presence of the indicated recombinant cytokine. Microtiter plates are incubated at 37°C in a humidified 10% CO2 incubator for 24 to 72 hours. At the end of that time, either 1 µCi 3H-thymidine or 100 µg of MTT (3-[4,5-dimethylthiazol-2-yl]-2,5-diphenyltetrazolium bromide) is added per well followed by an additional 4 to 6 hours of incubation. Microcultures pulsed using tritiated thymidine are harvested onto filter pads and counted by liquid scintillation. […] Optical density readings are taken at 570 nm with a reference wavelength of 690 nm to quantitate cell proliferation. […]

[4] = tested on: LIF stimulated cell proliferation (B9 hybridoma); test: Assay 3: cytokine dependent cell proliferation, LIF; assay type: cell-based; settings: Mus musculus; 50% inhibition of LIF dependent cell proliferation; 0.01 to 1 µM tested
Protocol: as §3

[5] = tested on: IL-4 stimulated proliferation (CTLL.6 cytolytic T cell; 11.6 helper T cell); test: Assay 3: cytokine dependent cell proliferation, IL-4; assay type: cell-based; settings: Mus musculus, 50% inhibition of IL-4 dependent cell proliferation, 0.01 to 1 µM tested
Protocol: as §3

[6] = tested on: IL-6 stimulated cell proliferation (T1165.17 plasmacytoma; B9 hybridoma); test: Assay 3: cytokine dependent cell proliferation, IL-6; assay type: cell-based; settings: Mus musculus; 50% inhibition of IL-6 dependent cell proliferation; 0.01 to 1 µM tested
Protocol: as §3

[7] = OVX rats, 100 µg/kg, 35 day treatment
[8] = OVX rats, 35 day treatment, PO, result in words
[9] = animals treated for as few as four days post-OVX, result in words

| pIC50 [4] | pIC50 [6] | SMILES | BMD % (protection) (OVX-induced osteopenia; 100 µg/kg) | OVX-induced osteopenia (OVX-induced osteopenia; PO) | bone density (OVX-induced osteopenia) | Serum IL-6 (IL-6 [1]; [7]) | rise in serum IL-6 levels (IL-6 [1]; [8]) | Serum IL-6 (IL-6 [1]; [9]) | pIC50 [3] | pIC50 [5] | further results |
| --- | --- | --- | --- | --- | --- | --- | --- | --- | --- | --- | --- |
| – | – | C#C[C@]1(O)CC[C@H]2[C@@H]3CCc4cc(O)ccc4[C@H]3CC[C@@]21C [Ethy, ethynyl estradiol] | 76.00 ± 18.3% | significantly attenuate | did not respond | 0.20 ± 0.10 ng/mL | significantly attenuate | significant reduction | – | – | BMD % (protection) (OVX-induced osteopenia; 1 µg/kg): 5.28 ± 11.83%; BMD % (protection) (OVX-induced osteopenia; 10 µg/kg): 57.25 ± 16.07%; Serum IL-6 (IL-6 [1]; OVX rats, 1 µg/kg, 35 day treatment): 3.42 ± 2.23 ng/mL; Serum IL-6 (IL-6 [1]; OVX rats, 10 µg/kg, 35 day treatment): 1.84 ± 0.60 ng/mL |
| 6.22 | 6.14 | O=C(c1ccc(OCCN2CCCCC2)cc1)c1c(-c2ccc(O)cc2)sc2cc(O)ccc12 [Raloxifene] | – | significantly attenuate | did not respond | – | significantly attenuate | significant reduction | < 6.00 | < 6.00 | IL-6 (IL-6 [2]; 1 mg/kg): 90 ± 21 ng/mL; IL-6 (IL-6 [2]; listed as 139478, 1 mg/kg): 90 ± 2.1 ng/mL; BMD % (protection) (OVX-induced osteopenia; 0.1 mg.kg, PO): 63.88 ± 19.8%; BMD % (protection) (OVX-induced osteopenia; 1 mg/kg, PO): 82.50 ± 17.17%; BMD % (protection) (OVX-induced osteopenia; 10 mg/kg, PO): 82.09 ± 7.02%; Serum IL-6 (IL-6 [1]; OVX rats, 0.1 mg.kg, PO, 35 day treatment): 4.32 ± 1.65 ng/mL; Serum IL-6 (IL-6 [1]; OVX rats, 1 mg/kg, PO, 35 day treatment): 1.55 ± 0.48 ng/mL; Serum IL-6 (IL-6 [1]; OVX rats, 10 mg/kg, PO, 35 day treatment): 1.23 ± 0.45 ng/mL |
| < 6.00 | < 6.00 | C[C@]12CC[C@@H]3c4ccc(O)cc4CC[C@H]3[C@@H]1CC[C@@H]2O [17-β-E2, 17-b-estradiol] | 106.4 ± 11.8% | – | – | 0.07 ± 0.10 ng/mL | – | – | < 6.00 | < 6.00 | – |
